Test results from the supplement of paper PMC13380429.

Assays:
[1] = system: A549-ACE2; experiment: drug-induced phospholipidosis relative to tamoxifen; higher = more phospholipidosis
[2] = system: A549-ACE2 infected with SARS-CoV-2; experiment: morphology score (similarity to uninfected cells); higher = more like uninfected cells; conditions: 24 h
[3] = system: U2OS; experiment: cell viability relative to DMSO; higher = less toxic; conditions: 72 h
[4] = system: Caco-2; experiment: as above; conditions: 72 h
[5] = system: HepG2; experiment: as above; conditions: 72 h
[6] = system: Vero E6; experiment: as above; conditions: 72 h
[7] = system: A549-ACE2 infected with SARS-CoV-2; experiment: cell count relative to DMSO; higher = less toxic; conditions: 24 h
[8] = system: U2OS; experiment: drug sensitivity score (DSS) for viability; higher = more toxic; extreme values may be limits of the assay; conditions: 72 h
[9] = system: Caco-2; experiment: as above; conditions: 72 h
[10] = system: HepG2; experiment: as above; conditions: 72 h
[11] = system: Vero E6; experiment: as above; conditions: 72 h
[12] = system: A549-ACE2 infected with SARS-CoV-2; experiment: SARS-CoV-2 infection rate relative to DMSO; higher = more infection; conditions: 24 h
[13] = system: U2OS; experiment: relative viability EC50 (midpoint between 100% and the lowest measured viability); higher = less toxic; conditions: 72 h
[14] = system: HepG2; experiment: as above; conditions: 72 h
[15] = system: Vero E6; experiment: as above; conditions: 72 h
[16] = system: Calu-3; experiment: cell viability relative to DMSO; higher = less toxic; conditions: 72 h
[17] = system: Calu-3; experiment: drug sensitivity score (DSS) for viability; higher = more toxic; extreme values may be limits of the assay; conditions: 72 h
[18] = system: Caco-2; experiment: relative viability EC50 (midpoint between 100% and the lowest measured viability); higher = less toxic; conditions: 72 h
[19] = system: Calu-3; experiment: as above; conditions: 72 h

C=C1C(=O)[C@]23[C@H](O)[C@H]1CC[C@H]2[C@@]12CO[C@]3(O)[C@@H](O)[C@@H]1C(C)(C)CC[C@@H]2O [Oridonin (Isodonol)]
drug-induced phospholipidosis [%], [1]
Conditions	0.3 µM	0.833333 µM	3.33333 µM	6.66667 µM	10 µM	30 µM
24 h	5.1	-1.43	0.65	11	16.8	43.1
48 h	5.34	-3.46	-0.285	6.67	13	–
72 h	4.41	-5.79	-4.81	-1.61	4.49	–

Conditions	SARS-CoV-2 infection rate, [12] [%]	cell count, [7] [%]	cell viability, [3] [%]	cell viability, [4] [%]	cell viability, [5] [%]	cell viability, [6] [%]	morphology score, [2]
1 nM	–	–	102	97.7	97.4	99.9	–
10 nM	–	–	95.1	107	103	98.7	–
0.1 µM	100	94	–	–	–	–	-0.14
100 nM	–	–	98.3	103	91.8	97.9	–
0.3 µM	99	101	–	–	–	–	-0.02
1 µM	104	99	–	–	–	–	-0.18
1000 nM	–	–	94.4	93.3	96.2	95.4	–
3 µM	101	98	–	–	–	–	-0.01
10000 nM	–	–	11.8	65.4	42.8	79.7	–

Conditions	drug sensitivity score	relative viability EC50 [µM]
[8]	5.7	–
[9]	2.7	–
[10]	3.7	–
[11]	1.2	–
[13]	–	2.66
[14]	–	2.63
[15]	–	> 10

COC(=O)[C@@]12OC[C@]34[C@H]([C@@H](O)[C@@H]1O)[C@@]1(C)CC(=O)C(O)=C(C)[C@@H]1C[C@H]3OC(=O)[C@H](OC(=O)/C=C(\C)C(C)C)[C@@H]24 [bruceantin]
Conditions	SARS-CoV-2 infection rate, [12] [%]	cell count, [7] [%]	cell viability, [3] [%]	cell viability, [4] [%]	cell viability, [5] [%]	cell viability, [6] [%]	cell viability, [16] [%]	morphology score, [2]
1 nM	–	–	103	102	92.8	101	96.7	–
10 nM	–	–	58.3	78.4	76.2	104	102	–
0.1 µM	12	62	–	–	–	–	–	0.3
100 nM	–	–	9	37.7	13.8	59.1	41.4	–
0.3 µM	16	62	–	–	–	–	–	0.26
1 µM	20	54	–	–	–	–	–	0.24
1000 nM	–	–	1.8	25.5	4.6	11.4	26.5	–
3 µM	12	38	–	–	–	–	–	0.33
10000 nM	–	–	0.1	22.4	0.9	2.5	21	–

Conditions	drug sensitivity score	relative viability EC50 [µM]
[8]	34.5	–
[9]	23.9	–
[10]	31	–
[11]	21.5	–
[13]	–	0.0133
[14]	–	0.0238
[15]	–	0.133
[17]	21.3	–
[18]	–	0.0261
[19]	–	0.0659

CC[C@H]1CN2CCc3cc(OC)c(OC)cc3[C@@H]2C[C@@H]1C[C@H]1NCCc2cc(OC)c(OC)cc21 [emetine]
[1], 24 h
Conditions	drug-induced phospholipidosis [%]
0.3 µM	3.73
0.833333 µM	5.74

Conditions	SARS-CoV-2 infection rate, [12] [%]	cell count, [7] [%]	cell viability, [3] [%]	cell viability, [5] [%]	cell viability, [6] [%]	cell viability, [16] [%]	morphology score, [2]
1 nM	–	–	101	91.7	94.3	105	–
10 nM	–	–	99.7	97.8	103	109	–
0.1 µM	5	102	–	–	–	–	0.87
100 nM	–	–	43.5	26.1	54.9	99.7	–
0.3 µM	5	91	–	–	–	–	0.7
1 µM	19	69	–	–	–	–	0.44
1000 nM	–	–	7	14.5	14	35.3	–
3 µM	23	59	–	–	–	–	0.43
10000 nM	–	–	2	4.5	6.9	30.8	–

Conditions	drug sensitivity score	relative viability EC50 [µM]
[8]	24.3	–
[10]	26.2	–
[11]	21.9	–
[13]	–	0.0846
[14]	–	0.0543
[15]	–	0.107
[17]	12	–
[19]	–	0.375

O=c1cc(N2CCOCC2)oc2c(-c3cccc4c3sc3ccccc34)cccc12 [NU-7441]
drug-induced phospholipidosis [%], [1]
Conditions	0.3 µM	0.833333 µM	3.33333 µM	6.66667 µM	10 µM	30 µM
24 h	-4.01	-8.02	17.6	23.6	28.1	26.9
48 h	-3.93	-5.23	26.4	–	–	–
72 h	-2.08	-7.5	–	–	–	–

Conditions	SARS-CoV-2 infection rate, [12] [%]	cell count, [7] [%]	cell viability, [4] [%]	cell viability, [5] [%]	cell viability, [6] [%]	cell viability, [16] [%]	morphology score, [2]
1 nM	–	–	109	108	104	101	–
10 nM	–	–	89.2	108	102	110	–
0.1 µM	101	96	–	–	–	–	-0.14
100 nM	–	–	100	116	102	98.7	–
0.3 µM	101	94	–	–	–	–	-0.23
1 µM	74	105	–	–	–	–	0.22
1000 nM	–	–	71.2	88.4	85.4	111	–
3 µM	38	98	–	–	–	–	0.53
10000 nM	–	–	56.9	32.7	14.4	61	–

Conditions	drug sensitivity score	relative viability EC50 [µM]
[9]	5.6	–
[10]	5.6	–
[11]	7.2	–
[14]	–	1.87
[15]	–	1.87
[17]	1.4	–

Oc1ccc(/C=C/c2cc(O)cc(O)c2)cc1 [resveratrol]
cell viability [%]
Conditions	[3]	[4]	[5]	[6]	[16]
1 nM	97.7	93.3	107	97.5	106
10 nM	95	91.6	116	97.3	103
100 nM	96.9	95.8	108	94.9	94.8
1000 nM	106	99.3	97.9	100	93.7
10000 nM	106	90.1	104	98.6	87.2

Conditions	drug sensitivity score	relative viability EC50 [µM]
[8]	0	–
[9]	0	–
[10]	0	–
[11]	0	–
[13]	–	> 10
[14]	–	> 10
[15]	–	> 10
[17]	0.1	–
[18]	–	> 10
[19]	–	> 10

C[C@H](NC[C@H](O)CP(=O)(O)CC1CCCCC1)c1ccc(Cl)c(Cl)c1
cell viability [%]
Conditions	[3]	[4]	[5]	[6]	[16]
1 nM	94.6	96.1	103	107	76.5
10 nM	102	92.1	97.6	101	104
100 nM	94.2	93.9	99.3	104	95.2
1000 nM	101	99.5	98.6	98.7	102
10000 nM	99.8	91.4	96.8	104	91.7

Conditions	drug sensitivity score	relative viability EC50 [µM]
[8]	0	–
[9]	0	–
[10]	0	–
[11]	0	–
[13]	–	> 10
[14]	–	> 10
[15]	–	> 10
[17]	0	–
[18]	–	> 10
[19]	–	> 10

Cc1cc(-c2ncc(CC(=O)Nc3ccc(-c4cnccn4)cn3)cc2C)ccn1 [LGK-974]
cell viability [%]
Conditions	[3]	[4]	[5]	[6]	[16]
1 nM	97.4	97.1	95	93	93.6
10 nM	96.8	96.6	99.7	96.6	97
100 nM	92.7	89.2	97.9	90.7	84.2
1000 nM	93.4	91.2	96.9	93.4	90.3
10000 nM	91.4	75.2	39.6	107	87.8

Conditions	drug sensitivity score	relative viability EC50 [µM]
[8]	0	–
[9]	1.8	–
[10]	3.7	–
[11]	0	–
[13]	–	> 10
[14]	–	2.77
[15]	–	> 10
[17]	0.8	–
[18]	–	> 10
[19]	–	> 10

C[C@H]1CNCCCN1S(=O)(=O)c1cccc2cncc(F)c12 [ripasudil]
cell viability [%]
Conditions	[3]	[4]	[5]	[6]	[16]
1 nM	98.4	92	111	109	88.6
10 nM	100	90.4	101	103	98.1
100 nM	99.4	87.5	101	105	102
1000 nM	99.8	99.2	92.1	91.6	138
10000 nM	92.9	101	88	88.7	143

Conditions	drug sensitivity score	relative viability EC50 [µM]
[8]	0	–
[9]	0	–
[10]	0.3	–
[11]	0.2	–
[13]	–	> 10
[14]	–	> 10
[15]	–	> 10
[17]	0	–
[18]	–	> 10
[19]	–	> 10

CCOC(=O)c1ccc(C#Cc2ccc3c(c2)C(C)(C)CCS3)nc1 [tazarotene]
cell viability [%]
Conditions	[3]	[4]	[5]	[6]	[16]
1 nM	93.7	91.3	108	101	99.5
10 nM	98	96.3	92.8	97.7	101
100 nM	92.2	96.4	119	94.9	100
1000 nM	92.2	86	105	94.9	87.5
10000 nM	93.6	83.8	110	110	91.2

Conditions	drug sensitivity score	relative viability EC50 [µM]
[8]	0	–
[9]	0.7	–
[10]	0	–
[11]	0	–
[13]	–	> 10
[14]	–	> 10
[15]	–	> 10
[17]	0.7	–
[18]	–	> 10
[19]	–	> 10

CC(O)Cn1cnc2c1c(=O)n(C)c(=O)n2C (stereo not drawn) [Proxyphylline]
cell viability [%]
Conditions	[3]	[4]	[5]	[6]	[16]
1 nM	98.9	102	106	90.1	92.5
10 nM	92.8	93.9	102	99.1	100
100 nM	95.1	99.9	98.7	87	106
1000 nM	93.6	101	111	90.8	99.3
10000 nM	104	94.6	103	108	104

Conditions	drug sensitivity score	relative viability EC50 [µM]
[8]	0	–
[9]	0	–
[10]	0	–
[11]	0	–
[13]	–	> 10
[14]	–	> 10
[15]	–	> 10
[17]	0	–
[18]	–	> 10
[19]	–	> 10

CC(C)n1c(=O)n(C(=O)N[C@H]2C[C@H]3CC[C@@H](C2)N3C)c2ccccc21 [BIMU-8]
cell viability [%]
Conditions	[3]	[4]	[5]	[6]	[16]
1 nM	102	99	93.2	105	96.4
10 nM	103	105	95.2	99.6	105
100 nM	99.1	98.1	90.5	99.6	96.3
1000 nM	101	102	93.2	98.9	92.3
10000 nM	99.1	96.9	97	94.7	93.9

Conditions	drug sensitivity score	relative viability EC50 [µM]
[8]	0	–
[9]	0	–
[10]	0	–
[11]	0	–
[13]	–	> 10
[14]	–	> 10
[15]	–	> 10
[17]	0	–
[18]	–	> 10
[19]	–	> 10

COc1cc2c(NC3CCN(C)CC3)nc(N3CCCN(C)CC3)nc2cc1OCCOCCN(C)C [UNC0321]
cell viability [%]
Conditions	[3]	[4]	[5]	[6]	[16]
1 nM	100	105	99.9	99.7	89.5
10 nM	100	94	107	104	107
100 nM	98.3	102	105	104	99
1000 nM	102	102	102	97	99.2
10000 nM	97.6	100	102	96.9	97

Conditions	drug sensitivity score	relative viability EC50 [µM]
[8]	0	–
[9]	0	–
[10]	0	–
[11]	0	–
[13]	–	> 10
[14]	–	> 10
[15]	–	> 10
[17]	0	–
[18]	–	> 10
[19]	–	> 10
